Reference: US5837516A, “Subtilisin variants capable of cleaving substrates containing basic residues” (Genentech, Inc., priority 1995, dated 1998)
Residue numbers refer to the chain shown, from its start. Residues, ends and D or L forms follow the SMILES beside them.

Experiments:
subtilisin = target: T1, subtilisin (Bacillus amyloliquefaciens, UniProt P00782); settings: Estell et al. (1986) Science 233:659-663; cited from earlier work
T1 sequence (P00782 108-382): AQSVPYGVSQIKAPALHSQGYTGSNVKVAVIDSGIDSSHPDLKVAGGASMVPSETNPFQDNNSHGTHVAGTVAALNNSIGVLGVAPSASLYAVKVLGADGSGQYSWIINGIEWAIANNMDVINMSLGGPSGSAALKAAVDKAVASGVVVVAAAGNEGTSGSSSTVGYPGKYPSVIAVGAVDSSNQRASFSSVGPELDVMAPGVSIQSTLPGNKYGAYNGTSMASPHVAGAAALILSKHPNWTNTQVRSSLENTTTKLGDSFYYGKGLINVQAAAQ

[1] = target: T2, subtilisin BPN' variant N62D/Y104D/G166D (SEQ ID NO: 75) (Bacillus amyloliquefaciens, UniProt P00782, G273D/N169D/Y211D); test: Kinetic analysis, hydrolysis of succinyl-tetrapeptide-pNA substrates; type: biochemical; settings: relative to succinyl-RAKR-pNA
T2 construct: the mature enzyme +1 to +275; made in house; host or cells: Bacillus subtilis BG2036 (protease-deficient), secreted
T2 sequence (P00782 108-382 N169D/Y211D/G273D): T1 sequence (P00782 108-382) with N62D, Y104D, G166D
Procedure: The mature N62D/Y104D/G166D variant was purified and analyzed for its ability to hydrolyze several tetrapeptide-pNA substrates.
Kinetic analysis of WT, N62D/G166D, and N62D/Y104D/G166D subtilisin BPN'
Subtilisins were assayed by measuring the initial rates of hydrolysis of p-nitroanilide tetrapeptide substrates in 0.4 mL 20 mM Tris-Cl pH 8.2, 4% (v/v) dimethyl sulfoxide at (25±0.2)° C. as described previously (Estell, D. A., Graycar, T. P., Miller, J. V., Powers, D. B., Burnier, J. P., Ng, P. G. and Wells, J. A. (1986)Science 233:659-663). Enzyme concentrations (E)0 were determined spectrophotometrically using E280 nm 0.1%=1.17 (Matsubara, H.; Kasper, C B.; Brown, D. M.; and Smith, E. L. (1965)J. Biol. Chem.,240:1125-1130.), and were typically 5-50 nM in reactions. Initial rates were determined for nine to twelve different substrate concentrations over the range of 0.001-2.0 mM. Plots of initial rates (v) versus substrate concentration (S) were fitted to the Michaelis-Menton equation, [formula] to determine the kinetic constants kcat and Km (Fersht, A. in "Enzyme Structure and Mechanism", Second edition, Freeman and Co., N.Y.) using the program Kaleidagraph (Synergy Software, Reading, Pa.).

C[C@H](NC(=O)CCC(=O)O)C(=O)N[C@@H](C)C(=O)N1CCC[C@H]1C(=O)N[C@@H](Cc1ccccc1)C(=O)Nc1ccc([N+](=O)[O-])cc1 [succinyl-AAPF-pNA, N-succinyl-alanine-alanine-proline-phenylalanyl-p-nitroanalide] (HELM PEPTIDE1{[O=C(O)CCC(=O)[*:2]].A.A.P.F.[O=[N+]([O-])c1ccc(N[*:1])cc1]}$$$$V2.0)
kcat /Km ratio (subtilisin): 300000 M⁻¹ s⁻¹
catalytic efficiency (kcat/Km), fold less efficiently hydrolyzed than succinyl-RAKR-pNA [1]: 6×10^4 fold
